Test results taken from patent publication US9422243B2 (priority 2011, dated 2016).
Where two headings read alike, the source gives them in different places.

How the values were obtained:
in vivo = settings: male, Balb, Nu/Nu, mouse, plasma, 10 mg/kg; for Vd / clearance: iv; for AUC / Cmax / half-life: po
[1] = test system: Capan-1 human pancreatic cancer tumors; settings: for T − C: time to reach 1 g
[2] = mouse, 10 mg/kg, oral vs IV dose-normalized plasma AUC
[3] = test system: BRCA mutations and breast, ovarian and prostate cancer; settings: 19 patients with BRCA mutations and breast, monotherapy; cited from earlier work
[4] = cpd. 1 100 mg/kg oral daily, days 1 to 14
[5] = temozolomide 50 mg/kg oral, days 3, 4, 5, 6, 7 and 8

SMILES | Vd (in vivo) [L/kg] | clearance (in vivo) [mL/min/kg] | AUC (in vivo) [µM·h] | Cmax (in vivo) [nM] | half-life (in vivo) [h] | BWL (%) [1, 4] [%] | TGI (%) [1, 4] [%] | Toxicity [1, 4] | T − C [1, 4] [days] | F on AUC [2] [%] | objective response rate [3] [%] | BWL (%) [1, 5] [%] | TGI (%) [1, 5] [%] | Toxicity [1, 5] | T − C [1, 5] [days]
Cl.NCCOc1c(-c2ccc(Br)cc2)[nH]c(=O)c2cc(F)ccc12 [Compound 1, 4-(2-Amino-ethoxy)-3-(4-bromo-phenyl)-7-fluoro-2H-isoquinolin-1-one hydrochloride] | 3.6 | 12 | 27 | 6000 | 3.9 | 3 | 21 | 0/7 | 4 | 107 | – | – | – | – | –
Cl.NCCOc1c(-c2ccc(N3CCOCC3)c(Br)c2)[nH]c(=O)c2cc(F)ccc12 [Compound 4, 4-(2-Amino-ethoxy)-3-(3-bromo-4-morpholin-4-yl-phenyl)-7-fluoro-2H-isoquinolin-1-one hydrochloride] | 7.8 | 44.5 | 5.6 | 3000 | 1.43 | – | – | – | – | 83 | – | – | – | – | –
Cl.NCCOc1c(-c2ccc(Cl)cc2)[nH]c(=O)c2cc(F)ccc12 [Compound 8, 4-(2-Amino-ethoxy)-3-(4-chloro-phenyl)-7-fluoro-2H-isoquinolin-1-one hydrochloride] | 5.2 | 28.2 | 7.5 | 2850 | 3 | – | – | – | – | 74 | – | – | – | – | –
Cl.NCCOc1c(-c2ccc(Br)cc2)[nH]c(=O)c2c(F)c(F)ccc12 [Compound 12, 4-(2-Amino-ethoxy)-3-(4-bromo-phenyl)-7,8-difluoro-2H-isoquinolin-1-one hydrochloride] | 4.5 | 46.3 | 8.15 | 3150 | 1.77 | – | – | – | – | 109 | – | – | – | – | –
Cc1cc(-c2[nH]c(=O)c3cc(F)ccc3c2OCCN)ccc1Cl.Cl [Compound 13, 4-(2-Amino-ethoxy)-3-(4-chloro-3-methyl-phenyl)-7-fluoro-2H-isoquinolin-1-one hydrochloride] | 5.7 | 45 | 10 | 2000 | 3 | – | – | – | – | 128 | – | – | – | – | –
NCCOc1c(-c2ccc(Cl)c(Cl)c2)[nH]c(=O)c2cc(F)ccc12 [Compound 14, 4-(2-Amino-ethoxy)-3-(3,4-dichloro-phenyl)-7-fluoro-2H-isoquinolin-1-one] | 4.2 | 20.5 | 20.3 | 2800 | 3.5 | – | – | – | – | 136 | – | – | – | – | –
COc1ccc(-c2[nH]c(=O)c3cc(F)ccc3c2OCCN)cc1F.Cl [Compound 21, 4-(2-Amino-ethoxy)-7-fluoro-3-(3-fluoro-4-methoxy-phenyl)-2H-isoquinolin-1-one hydrochloride] | 6.5 | 45.4 | 10.5 | 4600 | 3.9 | – | – | – | – | 133 | – | – | – | – | –
O=C(c1cc(Cc2n[nH]c(=O)c3ccccc23)ccc1F)N1CCN(C(=O)C2CC2)CC1 [Olaparib] | – | – | – | – | – | – | – | – | – | – | 47 | – | – | – | –
Cn1nnc2c(C(N)=O)ncn2c1=O [temozolomide, reference compound] | – | – | – | – | – | – | – | – | – | – | – | 2.5 | 13 | 0/7 | 1
